Counter-ions that a name gives are not always drawn. Like-named read-outs stand apart in the source and are kept apart here.
Columns and labels:
rats [1] = assay: Maximal electroshock (MES) model in rats, p.o.;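 also: rat MES model gauging antiepileptic efficacy versus generalized and partial seizures after oral dosing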; type: in vivo; details: rats, p.o., Table 15
mice [2] = assay: Maximal electroshock (MES) model in mice, i.p.;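 also: Electroshock-induced convulsion model serving to demonstrate antiepileptic efficacy against generalized and partial seizures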; type: in vivo; details: Mus musculus, ip, Table 15
[3] = Neurotoxicity in rats (positional sense test and gait stance test), p.o.; details: rat, in vivo, po
Method: (§1) Neurotoxicity of the claimed agents was also assessed in mice (i.p. administration) by the rotorod ataxia test and/or in rats (p.o. administration) by positional sense test and gait stance test. […] The term quantitating the neurotoxicity is the medial neurological toxic dose (TD50), was determined in the above tests.

rats [4] = assay: as above; details: rats, p.o.; Table 16
Method: as §1

in vivo = details: mouse, in vivo, ip
Method: as §1

mice [5] = assay: in vivo; details: mouse, in vivo, ip
Method: as §1

[6] = test system: mechanically dissociated neonatal rat cerebellum; assay: Reversal of NMDA induced cell death in cultures of neonatal rat cerebellum; type: cell-based; details: for SURVIVING CELL IN CULTURE: relative to control (100%); for PERCENT PROTECTION: Cell Survival minus the NMDA effect; for EFFECTIVE PROTECTION: X x 100/70
In short: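 Cerebellar cells from 6–7-day rat pups on poly-L-lysine at 200/mm^2, grown 3 days (37°C, 5% CO2), then compound with NMDA challenge (1mM, 3 hours); spermine (0.01 micromoles) plus NMDA as positive control, duplicates. Survival by phase contrast and trypan blue after 24 hours; effective protection = percent protection ×100/70.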

[7] = test system: mechanically dissociated neonatal rat cerebellum; assay: Enhancement of cell survival in cultures of neonatal rat cerebellum (no NMDA); type: cell-based; details: 24 hours after addition, percentage of the number of control cells on the fourth day
Method: The cerebellum was aseptically dissociated from 6 or 7-day old rat pups and placed in a 15ml sterile plastic conical tube containing 3ml of Dulbecco's modified Eagle's medium (DMEM) with a high glucose concentration ([…]) and 2mM (v/v) L-glutamine and an antibiotic antimitotic mixture. The cerebella were then dissociated after 20-25 passages through a sterile 13 gauge, 10cm long stainless steel needle attached to a 5ml syringe with an inserted 45 micrometer pore nylon sieve. The dissociated cells were centrifuged at 200g for 5 minutes. […] Cell viability was determined by the tryptan blue exclusion test.
Cells were plated at a density of 200/mm^2 on poly-L-lysine coated surfaces. Poly-L-lysine coated glass coverslips were prepared at least one hour in advance of plating by immersing sterile coverslips in sterile distilled water solution containing 15 microgram/ml poly-L-lysine, and washing in sterile water just prior to use. […] After three days in culture, the media was replaced with media containing the desired test compound. Each test compound was tested in duplicate. Toxic-dose response was determined for each compound.
Cell cultures were grown as described above but in the absence of NMDA and after 3 days a dose of test compound was added. Cell survival was monitored as described above.

Male mongolian gerbils = assay: Global brain ischemia in gerbils (CA1 pyramidal neurons); type: in vivo; details: 3 injections, fraction of hippocampi protected from ischemia, 14 days post-ischemia
Method: Each artery was clamped for 5 minutes with aneurysm clips to produce global brain ischemia. The anesthesia was discontinued upon clamping. After 5 minutes the clamps were removed and the wound closed with skin clips.
For treatment, the test compound or vehicle were injected intra-peritoneally (ip) in a volume of 50 microliters of solvent per 10g body weight. The first injection was given two minutes after clamp removal, and thereafter daily for the next 2 post-operative days (total of 3 injections).
Seven groups each of 4-8 animals were compared: • I. Control; (sham- or unoperated and saline treated), • II. Vehicle treated, unoperated (when solvent is other than saline), • III. Ischemia - untreated or saline treated), • IV. Ischemia - vehicle treated (when solvent is other than saline), • V. Ischemia - Test compound treated, one sub-group per concentration tested, • VI. Ischemia and pentobarbital (40 mg/kg) as positive control).
Analysis of neuronal damage was performed 14 days post-ischemia by counting pyramidal neurons throughout the CA1 layer of the anterior hippocampus in […] thick (paraffin) coronal brain sections stained with hematoxylin and erosin.
Percent Protection values represent the fraction of hippocampi protected from ischemia in a group of animals treated with the stated dose of compound.

rats [8] = assay: Electrically kindled rat model of epilepsy, p.o.; type: in vivo; details: po, read-out: ED50 (prevented seizures)
Excerpt: The rat electrical kindling model of epilepsy has been known to show efficacy of antiepileptic agents against complex partial seizures that evolve into generalized motor seizures. In these tests, rats were electrically stimulated via corneal electrodes twice daily for approximately 5 days and then once daily for an additional 10 days. Once the seizure criteria, as described by R.J. Racine, et al., Electroenceph. Clin. Neurophysiol. 32: 281-294 (1972), were met, the test substance was administered p.o. to rats, and the rat electrically stimulated, and observed for the presence or absence of a seizure.

rats [9] = details: Rattus norvegicus, po, read-out: RATS scMet ED50
mice [10] = details: Mus musculus, ip, read-out: MICE scMet ED50, mice, i.p.; Table 16
[11] = 0.005 µM + NMDA 1mM for 3 hours
[12] = 0.010 µM + NMDA 1mM for 3 hours

| SMILES | ED50 (mice [2]) [mg/kg] | TD50 [3] [mg/kg] | RATS TD50 (rats [4]) [mg/kg] | TD50 (in vivo; MICE TD50) [mg/kg] | MICE TD50 (mice [5]) [mg/kg] | SURVIVING CELL IN CULTURE [6, 11] [%] | PERCENT PROTECTION ([6]; 0.005 µM + NMDA) [%] | EFFECTIVE PROTECTION ([6]; 0.005 µM + NMDA) [%] | SURVIVING CELL IN CULTURE [6, 12] [%] | PERCENT PROTECTION ([6]; 0.010 µM + NMDA) [%] | EFFECTIVE PROTECTION ([6]; 0.010 µM + NMDA) [%] | % ENHANCED SURVIVAL ([7]; 0.005 µM) [%] | PERCENT PROTECTION (Male mongolian gerbils; 0.1 mg/kg ip) [%] | PERCENT PROTECTION (Male mongolian gerbils; 1.0 mg/kg ip) [%] | PERCENT PROTECTION (Male mongolian gerbils; 10.0 mg/kg ip) [%] | ED50 (rats [8]) [mg/kg] | ED50 (rats [9]) [mg/kg] | ED50 (mice [10]) [mg/kg] | further results |
| --- | --- | --- | --- | --- | --- | --- | --- | --- | --- | --- | --- | --- | --- | --- | --- | --- | --- | --- | --- |
| CC(=O)N[C@H]1CCc2ccccc21 [Example 19, (S)-N-Acetyl-1-aminoindan] | 40 | > 500 | >500 | 61 | 61 | 30 | 0 | 0 | 42 | 12 | 17 | 120 | 25.0 | 0 | 37.5 | > 50 | > 250 | 86 | ED50 (rats [1]; Rattus norvegicus, po, read-out: RATS MES 50): 24 mg/kg; SURVIVING CELL IN CULTURE ([6]; 0.001 µM + NMDA 1mM for 3 hours): 80%; PERCENT PROTECTION ([6]; 0.001 µM + NMDA): 50%; EFFECTIVE PROTECTION ([6]; 0.001 µM + NMDA): 71%; SURVIVING CELL IN CULTURE ([6]; 1.000 µM + NMDA 1mM for 3 hours): 15%; PERCENT PROTECTION ([6]; 1.000 µM + NMDA): -15% |
| NC(=O)CN[C@H]1CCc2ccccc21 [Example 2, (S)-N-(2-Acetamido)-1-aminoindan.HCl] | 39 | > 500 | >500 | – | – | 56 | 26 | 37 | 51 | 21 | 30 | 140 | 0 | 50.0 | 37.5 | – | > 250 | > 150 | RATS MES 50 (rats [1]): 21 mg/kg; TD50 (in vivo; MICE TD50, mice, Table 15): 137 mg/kg; TD50 (in vivo; MICE TD50, mice, Table 16): 137 mg/kg; SURVIVING CELL IN CULTURE ([6]; 0.100 µM + NMDA 1mM for 3 hours): 33%; PERCENT PROTECTION ([6]; 0.100 µM + NMDA): 3%; EFFECTIVE PROTECTION ([6]; 0.100 µM + NMDA): 4%; % ENHANCED SURVIVAL ([7]; 0.01 µM): 125% |
| CC(=O)NC1CCc2ccccc21 (racemic) [Example 17, (rac)-N-Acetyl-1-aminoindan] | 33 | – | – | 90 | 90 | – | – | – | – | – | – | – | – | – | – | < 75 | – | 71.5 | – |
